In patent US12269813B2, “Crystalline form of 1-(1-oxo-1,2-dihydroisoquinolin-5-yl)-5-(trifluoromethyl)-N-(2-(trifluoromethyl)pyridin-4-yl)-1H-pyrazole-4-carboxamide monohydrate” (Janssen Pharmaceutica NV, priority 2019, dated 2025):
Entries after “also recorded” stand apart in the source; their conditions may differ.

Key:
[1] = Moisture sorption analysis (dynamic vapor sorption, DVS); assay type: physicochemical; settings: for hygroscopic behaviour: DVS, 0 to 95% RH at 25° C.; for loss of hydration water at low relative humidity: RH of 20% or less
Procedure: The moisture sorption analysis (DVS) was performed using a Surface Measurement Systems Advantage-1 dynamic vapor sorption apparatus. The moisture profile was evaluated by monitoring vapor adsorption/desorption over the range of 0 to 95% relative humidity at 25° C. The moisture profile consisted of 2 cycles of vapor adsorption/desorption.

[2] = Physical stability study with respect to water loss or uptake (water content by coulometric Karl Fischer); assay type: physicochemical
Procedure: The physical stability of Compound A monohydrate, Form III with respect to water loss or uptake was tested.
For the initial study, 0.5 g samples of monohydrate Form III were placed in double antistatic colourless LDPE bags and sealed.
For the long-term study (stability after 1 month and 3 months), 1.5 g samples of monohydrate Form III were placed in double antistatic colourless LDPE bags and sealed. The samples were stored at 30±2° C./75±5% RH and 40±2° C./75±5% RH in cardboard drums.
For the photostability study, 1.5 g of monohydrate Form III was placed into a petri dish and spread into a layer of no more than 3 mm thick. The petri dish was covered with quartz coverslips and sealed with parafilm. The photostability testing was carried out in line with ICH Q1B option 2 (ICH Harmonised Tripartite Guideline, Stability testing: Photostability testing of new drug substances and products, Q1B, Step 4 version, 6 Nov. 1996). Photostability samples were stored under separate lamps emitting visible and UV-A light, such that the total exposure was not less than 1.2 million lux hours and 200 Watt hours/m^2, respectively.
The water content of each of the samples was determined using a vaporized coulometric Karl Fischer method, in accordance with the US Pharmacopeia (USP <921> method IC; most recently appeared in Pharmacopeial Forum: Volume No. 38(1); Page information USP42/NF37-7092) and European Pharmacopeia 2.5.32 (Edition 10.0).

| Compound | hygroscopic behaviour ([1]; monohydrate) | loss of hydration water at low relative humidity ([1]; monohydrate) | water uptake ([1]; at 80% relative humidity) | Water content (%) ([2]; 30° C./75% RH, 1 month) | Water content (%) ([2]; 30° C./75% RH, 3 months) | Water content (%) ([2]; 40° C./75% RH, 1 month) | Water content (%) ([2]; 40° C./75% RH, 3 months) | Water content (%) ([2]; Initial) | hygroscopic character concluded from the stability study ([2]; Table 3 storage conditions) | Water content (%) ([2]; photostability, 1 × ICH option 2) | hygroscopic behaviour [1] | loss of hydration water at low relative humidity [1] | solid-state form change after the DVS test (XRPD pattern and IR spectrum) ([1]; fraction obtained after the DVS test vs starting material) | moisture adsorbed ([1]; humidity range 0-20% RH) | moisture adsorption and desorption ([1]; humidity range 20-95% RH, slow and reversible) | weight loss during the initial drying step (DVS change in mass plot) ([1]; initial drying step) |
| --- | --- | --- | --- | --- | --- | --- | --- | --- | --- | --- | --- | --- | --- | --- | --- | --- |
| O=C(Nc1ccnc(C(F)(F)F)c1)c1cnn(-c2cccc3c(=O)[nH]ccc23)c1C(F)(F)F [Form III, 1-(1-oxo-1,2 dihydroisoquinolin-5-yl)-5-(trifluoromethyl)-N-(2-(trifluoromethyl)pyridin-4-yl)-1H-pyrazole-4-carboxamide (Compound A) monohydrate] | non-hygroscopic | does not lose water; also recorded: avoids loss of water | less than 0.2% | 3.3% | 3.8% | 3.3% | 3.2% | 3.4% | non-hygroscopic | 3.4% |  |  |  |  |  |  |
| O=C(Nc1ccnc(C(F)(F)F)c1)c1cnn(-c2cccc3c(=O)[nH]ccc23)c1C(F)(F)F [Form I, 1-(1-oxo-1,2-dihydroisoquinolin-5-yl)-5-(trifluoromethyl)-N-[2-(trifluoromethyl)pyridin-4-yl]-1H-pyrazole-4-carboxamide (Compound A) hydrate, Form I] |  |  |  |  |  |  |  |  |  |  | hygroscopic | lost at RH of 20% and less | No indication of a solid-state form change | 4.1-4.2% | 1.8% | ~2.7% |
